This assay relates to Plasmodium falciparum. Briefly: GSK_TCMDC: Inhibition of Plasmodium falciparum 3D7 in whole erythrocytes, using parasite LDH activity as an index of growth. It counts as functional, organism-based. As to conditions: Plasmodium falciparum, 3D7.
Take `COc1ccc2c(c1)[nH]c1c(/C=C/c3ccc([N+](=O)[O-])cc3)nccc12`: the XC50 was 858 nM.

`COc1ccccc1CNCC(O)c1cc(C(F)(F)F)ccc1C(F)(F)F` (stereo unspecified) came in with an XC50 of 944 nM.

Compound `CCCCc1ccc(C(=O)Nc2ccc3nc(N4CCN(CC)CC4)cc(C)c3c2)cc1` gave an XC50 of 905 nM.

In turn, `CCN(CC)CCN(Cc1ccc(-c2ccc(C(F)(F)F)cc2)cc1)C(=O)Cn1c(CCC2CCCCC2)nc(=O)c2ccccc21` displayed an XC50 of 1390 nM.

`CCN1CCC(N(Cc2ccc(-c3ccc(C(F)(F)F)cc3)cc2)C(=O)Cn2c(CCc3cccc(F)c3F)nc(=O)c3ccccc32)CC1` displayed an XC50 of 1060 nM.

In turn, `Cc1ccc2c(=O)cc(CCc3cccc(F)c3F)n(CC(=O)N(Cc3ccc(-c4ccc(C(F)(F)F)cc4)cc3)C3CCN(C(C)C)CC3)c2n1` came in with an XC50 of 776 nM.

Compound `Cc1[nH]cc(Br)c(=O)c1-c1ccc(Oc2ccc(OC(F)(F)F)cc2)cc1` showed an XC50 of 325 nM.

`CS(=O)(=O)c1cccc(-c2cnc(N)c3cc(-c4ccc(F)cc4)ccc23)c1`: the XC50 was found to be 903 nM.

In the case of `CC1CN(c2ccc(C(=O)NCC3CC3)cc2NC(=O)OCc2ccccc2)CC(C)O1` (stereo unspecified), the XC50 was found to be 1300 nM.

In turn, `CCCCN(CCCC)Cc1cc(Nc2ccnc3cc(Cl)ccc23)ccc1O` returned an XC50 of 17.2 nM.

`COc1cc(Nc2ccc3cc(S(=O)(=O)N4CCCCC4C)ccc3n2)cc(OC)c1OC` (stereo unspecified) returned an XC50 of 1240 nM.

With `COc1ccc(NC(=O)Nc2cccc(-c3cccc(-c4nc5cccc(C)c5[nH]4)c3)c2)cc1`, the XC50 worked out at 400 nM.

`COc1ccc(CCCON2C(=N)N=C(N)NC2(C)C)cc1`: the XC50 was 3.2 nM.

Compound `Cc1cc(NC2CCN(Cc3ccccc3)CC2)nc(NCCCCc2ccccc2)n1` displayed an XC50 of 383 nM.

`CN1CCN(CCCN(Cc2csc(-c3ccc(CNCc4ccccc4)cc3)n2)S(=O)(=O)c2ccccc2)CC1` came in with an XC50 of 773 nM.

As for `CC(=O)N[C@H](C(=O)Nc1cccc(-c2ccc(-c3nc4cccc(C)c4[nH]3)s2)c1)C(C)C`, the XC50 was 760 nM.

Take `O=C(Nc1cccc(CN2CCCN(Cc3ncc[nH]3)CC2)c1)c1ccc(-c2ccccc2)cc1`: the XC50 was found to be 654 nM.

Regarding `CC(C)(CN)c1nc(-c2ccc(Cl)c(O)c2)c(-c2ccnc(N)n2)[nH]1`, the XC50 amounted to 981 nM.

Take `CC1CCCC(C)N1C[C@@H](O)CNS(=O)(=O)c1cccc(C(F)(F)F)c1` (stereo partly specified): the XC50 was 692 nM.

For `Cc1ccc(Nc2ccnc3ccc(C(F)(F)F)cc23)cc1O`, the XC50 is 956 nM.

Regarding `CS(=O)(=O)c1cccc(-c2cnc(N)c3cc(-c4ccc5c(c4)OCO5)ccc23)c1`, the XC50 came to 1040 nM.

`CCCOc1cc(OCCC)cc(-c2cc(=O)c3ccccc3[nH]2)c1` yielded an XC50 of 58.1 nM.

The compound `CCN1CCC(NCc2ccc(-c3ccc(Cl)cc3)cc2)CC1` came in with an XC50 of 1020 nM.

The compound `CS(=O)(=O)CCNCc1nc(-c2ccc3c(=O)[nH]cnc3c2)cs1` returned an XC50 of 1010 nM.

In turn, `COc1ccc2cc(-c3nc(-c4c(Cl)cccc4Cl)[nH]c3-c3ccnc(NCCC4CCCN4C)c3)ccc2c1` (stereo unspecified) registered an XC50 of 1030 nM.

As to `Cc1ccc2c(=NN=Cc3ccc(N(C)C)cc3)cc(C)[nH]c2c1`, the XC50 was found to be 881 nM.

`CC(C)(CNC(=O)/C=C/c1ccc(Cl)c(Cl)c1)CNc1cc(=O)c2ccccc2[nH]1` gave an XC50 of 856 nM.

Take `COc1ccc2nccc([C@@H](O)CN3C4CCC3CC(NCc3ccc5c(n3)NC(=O)CS5)C4)c2n1` (stereo partly specified): the XC50 stood at 934 nM.

The compound `O=C(NC1CC1)c1cnc(N2CCN(Cc3c(F)cccc3Cl)CC2)c(Cl)c1` came in with an XC50 of 905 nM.

`CC(C)(C)c1ccc(CN2CCC(NC(=O)c3ccc(-c4cccc(C(F)(F)F)c4)s3)CC2)cc1` came in with an XC50 of 359 nM.

For `O=c1cc(NCCCNC(c2ccccc2)c2ccc(Cl)c(Cl)c2)[nH]c2ccccc12` (stereo unspecified), the XC50 worked out at 1140 nM.

With `COc1ccc(CNCc2ccc(-c3ccc(-c4nc5cccc(C)c5[nH]4)s3)cc2)cc1`, the XC50 came to 180 nM.

Consider `CCCCCCN1CCCN(Cc2ccc(C(=O)Nc3cccc(CC)c3)cc2)CC1`, for which the XC50 amounted to 670 nM.

With `CC(C)(C)OC(=O)N1CCC(C2CCN(C(=O)OC(C)(C)C)CC2)CC1`, the XC50 was found to be 1160 nM.

Turning to `O=C(C=Cc1ccc(Cl)c(Cl)c1)NCCCCCN1CCCC(CCCNS(=O)(=O)c2cccc3cccnc23)C1` (stereo unspecified), the XC50 came to 1000 nM.

The compound `CC(C)CNCc1ccc(-c2ccccc2CNC2CCN(Cc3ccccc3)CC2)cc1` gave an XC50 of 565 nM.

The compound `O=C1COc2ccc(CNC3CCC(O)(CCc4ccnc5cc6c(cc45)OCCO6)CC3)nc2N1` (stereo unspecified) had an XC50 of 931 nM.

In the case of `CC(C)NCC(=O)Nc1cccc(C(=O)Nc2cccc(C(F)(F)F)c2)c1`, the XC50 was 273 nM.

`CC(C)NCc1cccc(-c2ccc(NC(=O)c3ccc(C#N)cc3)cc2)c1` showed an XC50 of 825 nM.

`N#Cc1ccc2c(c1)CN(C1CCC(NC(=O)/C=C/c3cc(C(F)(F)F)cc(C(F)(F)F)c3)CC1)CCC2` (stereo unspecified): the XC50 was found to be 1390 nM.

In turn, `CN1CCN(c2cc3c(cc2Cl)CCN3C(=O)Cc2ccc(NC(=O)Nc3cccc4ccccc34)cc2)CC1` yielded an XC50 of 973 nM.

Regarding `CC(CCCC(=O)Nc1ccc(CC(C)NCCc2cccc(Cl)c2)cc1)NCCc1cccc(Cl)c1` (stereo unspecified), the XC50 was determined as 625 nM.

In turn, `CCCc1ccc(NC(=O)c2cccc(CN3CCCN(Cc4cccc(C#N)c4)CC3)c2)cc1` had an XC50 of 976 nM.

With `CC(C)(CNC(=O)[C@@H]1CCCN(CCOc2ccc(Cl)cc2)C1)c1nc(-c2ccc(Cl)c(O)c2)c(-c2ccncc2)[nH]1`, the XC50 came to 881 nM.

The compound `CC1Cc2ccccc2N1S(=O)(=O)c1cc(OCC(F)(F)F)ccc1OCC(F)(F)F` (stereo unspecified) registered an XC50 of 645 nM.

Compound `CC1(C)N=C(N)N=C(N)N1OCCCOc1cc(Cl)c(Cl)cc1Cl` had an XC50 of 3.2 nM.

`CCCCCCCNC(=O)NCC1CCCN(CCCCCNC(=O)/C=C/c2ccc(Cl)c(Cl)c2)C1` (stereo unspecified) gave an XC50 of 1040 nM.

`COc1ccc(-c2cc(Nc3nc(-c4cccc(Cl)c4)nc4ccccc34)ccn2)cc1`: the XC50 amounted to 727 nM.

The compound `O=C(NCc1cccc(C(F)(F)F)c1)c1ccc(CNC(=O)c2ccc(O)c(-c3ccc(Cl)c(Cl)c3)c2)cc1` showed an XC50 of 843 nM.

The compound `CCn1c(Cc2ccccc2)nnc1SCC(=O)N1c2ccccc2Sc2ccccc21` gave an XC50 of 588 nM.

The compound `CCc1cn2c3c(cc(C(=O)N[C@@H](Cc4ccccc4)[C@H](O)CNC(C)(C)CCCC(C)C)cc13)N(C)S(=O)(=O)C2` gave an XC50 of 240 nM.

The compound `FC(F)(F)c1cccc2c(NN=Cc3ccccc3)ccnc12` showed an XC50 of 624 nM.

`COc1cccc([C@@H](CC(=O)Nc2cc(C(F)(F)F)ccc2OC)Nc2ccc(C#N)c3ccccc23)c1` registered an XC50 of 993 nM.

For the compound `O=C(NC1CCCCC1)N(Cc1ccc(-c2cccc(CNCc3ccc4c(c3)OCO4)c2)cc1)C1CCN(Cc2ccccc2)CC1`, the XC50 is 688 nM.

As to `O=C(N[C@H]1CCN(Cc2ccc(OC3CCN(Cc4ccccc4)CC3)c(Cl)c2)C1)c1ccc(Cl)c(Cl)c1`, the XC50 came to 814 nM.

On to `O=C(Nc1cc(Oc2ccc(O)cc2)cc([N+](=O)[O-])c1)c1cc(-c2ccc(F)cc2)no1`, for which the XC50 was 955 nM.

Consider `CCCCCCCN1CC[C@@H](CCCc2ccnc3ccc(OCC4CCCNC4)cc23)[C@@H](CC)C1` (stereo partly specified), for which the XC50 was 625 nM.

Turning to `CC1(C)NC(N)=NC(=N)N1OCCCO`, the XC50 came out at 221 nM.

In turn, `COc1ccc(CNCc2ccccc2)cc1-c1ccc(S(=O)(=O)NCCN2CCCC2)c(C)c1` came in with an XC50 of 856 nM.

In turn, `COC(=O)c1ccc(CC(C)NCC(O)c2cccc(Br)c2)cc1` (stereo unspecified) had an XC50 of 694 nM.

For `Nc1c2c(nc3ccc(Oc4ccc(Br)cc4Br)cc13)CCCC2`, the XC50 worked out at 864 nM.

For `CN(C)CCCNc1ncnc2c1[nH]c1ccc(F)cc12`, the XC50 was determined as 732 nM.

In turn, `FC(F)(F)c1cnc(Sc2nnc(-c3ccncc3)o2)c(Cl)c1` came in with an XC50 of 272 nM.

As for `Clc1ccc2c(NCCc3ccccc3)ccnc2c1`, the XC50 amounted to 488 nM.

As to `CCCCCCCc1ccc(-c2c(C)[nH]c(C)c(Cl)c2=O)cn1`, the XC50 was 361 nM.

On to `CC(C)c1ccc(NC(=O)NC2CCN(CCCCCN(C)C(=O)/C=C/c3ccc(Cl)c(Cl)c3)C2)cc1` (stereo unspecified), for which the XC50 is 830 nM.

For the compound `Cc1cccc2nc(-c3ccc(-c4cccc(CNCc5ccccc5)c4)s3)[nH]c12`, the XC50 was determined as 741 nM.

Compound `O=C(NCCN1CCCCC1)N1CCCN(c2ncnc3cc(-c4ccccc4)sc23)CC1` yielded an XC50 of 231 nM.

`CC(C)N1CCN(C(CN2CCN(CCCOc3ccc(-c4ccccc4)cc3)CC2)c2ccc(F)cc2)CC1` (stereo unspecified): the XC50 is 678 nM.

The compound `Cc1nc(N)nc(N)c1OCCCCOc1ccccc1` displayed an XC50 of 53.5 nM.

In turn, `O=C(c1ccc(Cl)cc1)N1CCOC(CCN2CCC(c3ccccc3)CC2)(c2ccc(Cl)c(Cl)c2)C1` (stereo unspecified) showed an XC50 of 238 nM.

The compound `Nc1cccc(CNCc2cccc(-c3ccc(-c4nc5cc(C(F)(F)F)ccc5[nH]4)cc3)c2)c1` came in with an XC50 of 360 nM.

In turn, `O=C(Nc1ccc(OC2CCN(Cc3ccsc3)C2)c(Cl)c1)c1ccc2ncccc2c1` (stereo unspecified) returned an XC50 of 966 nM.

In turn, `OC1=C2C(=Nc3ccccc3SC2c2cccs2)c2ccccc21` (stereo unspecified) returned an XC50 of 229 nM.

With `O=C(Nc1cccc(-c2cccc(-c3nc4cc(C(F)(F)F)ccc4[nH]3)c2)c1)c1ccc(=O)[nH]n1`, the XC50 turned out to be 656 nM.

In turn, `COc1ccc(-c2nc3cccnc3n2CC(=O)Nc2cc(Cl)c(Cl)cc2Cl)c(OC)c1` returned an XC50 of 722 nM.

Take `Fc1ccccc1-c1cc(Nc2ccncc2)nc(-c2cccnc2)n1`: the XC50 turned out to be 258 nM.

For `CCN(CCCN1CCCCC1)c1nccc(Nc2ccc(Cl)cc2)n1`, the XC50 turned out to be 1190 nM.

Turning to `COc1cccc(CCc2c(CCNCCCCCCNCCc3ccccc3)ccc(OC)c2OC)c1`, the XC50 is 721 nM.

The compound `COc1cc(Cc2cnc(N)nc2N)ccc1OCc1ccc(-c2ccccc2C#N)cc1` yielded an XC50 of 940 nM.

`COc1ccc(OC)c(C=CC(=O)NC2CCC(CN3CCC(c4c[nH]c5ccccc45)CC3)CC2)c1` (stereo unspecified) returned an XC50 of 653 nM.

Regarding `Cc1cc(C2CCN(CCCCNC(=O)c3ccc(-c4ccc(C(F)(F)F)cc4)cc3)CC2)c(C)cc1OCCO`, the XC50 was 885 nM.

Consider `CN1CCCC1CCCOC(=O)c1ccc(N)cc1` (stereo unspecified), for which the XC50 is 916 nM.

With `c1cc(CNCC2CCCO2)cc(-c2csc(-c3nc4ccccc4[nH]3)c2)c1` (stereo unspecified), the XC50 amounted to 1040 nM.

As for `COc1cc2c(cc1OC)CN(CCc1ccc(NC(=O)c3cc4cc(Cl)ccc4[nH]3)cc1)CC2`, the XC50 amounted to 1020 nM.

Turning to `CCC(CC)N1C(=O)C(c2ccccc2)(c2ccccc2)N=C1N`, the XC50 is 805 nM.

These data come from ChEMBL document CHEMBL1157539, “Thousands of chemical starting points for antimalarial lead identification” (Nature, 2010).
